Measurements: the NIST ThermoML archive (doi:10.1021/je200721d)

Assay: xn = mol fraction of the nth substance listed
Details: Liquid, Vibrating tube method

CCCCCCCCCC [decane] + CCCCCC
Details	mass density [kg/m3]
332.93 K, 7000 kPa, x2 = 0.8991	643.52
332.93 K, 8000 kPa, x2 = 0.8991	644.74
332.93 K, 9000 kPa, x2 = 0.8991	645.94
332.93 K, 10000 kPa, x2 = 0.8991	647.14
332.93 K, 11000 kPa, x2 = 0.8991	648.32
332.93 K, 12000 kPa, x2 = 0.8991	649.47
332.93 K, 13000 kPa, x2 = 0.8991	650.61
332.93 K, 14000 kPa, x2 = 0.8991	651.73
332.93 K, 15000 kPa, x2 = 0.8991	652.84
332.93 K, 16000 kPa, x2 = 0.8991	653.92
332.93 K, 17000 kPa, x2 = 0.8991	654.97
332.93 K, 18000 kPa, x2 = 0.8991	655.99
332.93 K, 19000 kPa, x2 = 0.8991	657.01
332.93 K, 20000 kPa, x2 = 0.8991	657.98
332.93 K, 21000 kPa, x2 = 0.8991	658.93
332.93 K, 22000 kPa, x2 = 0.8991	659.86
332.93 K, 23000 kPa, x2 = 0.8991	660.76
332.93 K, 24000 kPa, x2 = 0.8991	661.64
332.93 K, 25000 kPa, x2 = 0.8991	662.49
333.08 K, 1000 kPa, x2 = 0.2185	689.16
333.08 K, 2000 kPa, x2 = 0.2185	690.17
333.08 K, 3000 kPa, x2 = 0.2185	691.16
333.08 K, 4000 kPa, x2 = 0.2185	692.16
333.08 K, 5000 kPa, x2 = 0.2185	693.16
333.08 K, 6000 kPa, x2 = 0.2185	694.13
333.08 K, 7000 kPa, x2 = 0.2185	695.1
333.08 K, 8000 kPa, x2 = 0.2185	696.06
333.08 K, 9000 kPa, x2 = 0.2185	697.02
333.08 K, 10000 kPa, x2 = 0.2185	697.94
333.08 K, 10990 kPa, x2 = 0.2185	698.86
333.08 K, 12000 kPa, x2 = 0.2185	699.77
333.08 K, 13000 kPa, x2 = 0.2185	700.66
333.08 K, 14000 kPa, x2 = 0.2185	701.54
333.08 K, 15000 kPa, x2 = 0.2185	702.39
333.08 K, 16000 kPa, x2 = 0.2185	703.25
333.08 K, 17000 kPa, x2 = 0.2185	704.09
333.08 K, 18000 kPa, x2 = 0.2185	704.93
333.08 K, 19000 kPa, x2 = 0.2185	705.76
333.08 K, 20000 kPa, x2 = 0.2185	706.56
333.08 K, 21000 kPa, x2 = 0.2185	707.37
333.08 K, 22000 kPa, x2 = 0.2185	708.17
333.08 K, 23000 kPa, x2 = 0.2185	708.95
333.08 K, 24000 kPa, x2 = 0.2185	709.72
333.08 K, 25000 kPa, x2 = 0.2185	710.48
333.1 K, 1000 kPa, x2 = 0.7524	650.65
333.1 K, 2000 kPa, x2 = 0.7524	651.99
333.1 K, 3000 kPa, x2 = 0.7524	653.29
333.1 K, 4000 kPa, x2 = 0.7524	654.52
333.1 K, 5000 kPa, x2 = 0.7524	655.72
333.1 K, 6000 kPa, x2 = 0.7524	656.92
333.1 K, 7000 kPa, x2 = 0.7524	658.07
333.1 K, 8000 kPa, x2 = 0.7524	659.21
333.1 K, 9000 kPa, x2 = 0.7524	660.35
333.1 K, 10000 kPa, x2 = 0.7524	661.46
333.1 K, 10990 kPa, x2 = 0.7524	662.52
333.1 K, 12000 kPa, x2 = 0.7524	663.6
333.1 K, 13000 kPa, x2 = 0.7524	664.65
333.1 K, 14000 kPa, x2 = 0.7524	665.67
333.1 K, 15000 kPa, x2 = 0.7524	666.7
333.1 K, 16000 kPa, x2 = 0.7524	667.68
333.1 K, 17000 kPa, x2 = 0.7524	668.66
333.1 K, 18000 kPa, x2 = 0.7524	669.62
333.1 K, 19000 kPa, x2 = 0.7524	670.59
333.1 K, 20000 kPa, x2 = 0.7524	671.52
333.1 K, 21000 kPa, x2 = 0.7524	672.45
333.1 K, 22000 kPa, x2 = 0.7524	673.35
333.1 K, 23000 kPa, x2 = 0.7524	674.23
333.1 K, 24000 kPa, x2 = 0.7524	675.08
333.1 K, 25000 kPa, x2 = 0.7524	675.91
333.12 K, 1000 kPa, x2 = 0.0456	697.88
333.12 K, 2000 kPa, x2 = 0.0456	698.9
333.12 K, 3000 kPa, x2 = 0.0456	699.91
333.12 K, 4000 kPa, x2 = 0.0456	700.9
333.12 K, 5000 kPa, x2 = 0.0456	701.88
333.12 K, 6000 kPa, x2 = 0.0456	702.84
333.12 K, 7000 kPa, x2 = 0.0456	703.78
333.12 K, 8000 kPa, x2 = 0.0456	704.71
333.12 K, 9000 kPa, x2 = 0.0456	705.63
333.12 K, 10000 kPa, x2 = 0.0456	706.54
333.12 K, 10990 kPa, x2 = 0.0456	707.42
333.12 K, 12000 kPa, x2 = 0.0456	708.3
333.12 K, 13000 kPa, x2 = 0.0456	709.16
333.12 K, 14000 kPa, x2 = 0.0456	710.01
333.12 K, 15000 kPa, x2 = 0.0456	710.86
333.12 K, 16000 kPa, x2 = 0.0456	711.67
333.12 K, 17000 kPa, x2 = 0.0456	712.48
333.12 K, 18000 kPa, x2 = 0.0456	713.29
333.12 K, 19000 kPa, x2 = 0.0456	714.08
333.12 K, 20000 kPa, x2 = 0.0456	714.87
333.12 K, 21000 kPa, x2 = 0.0456	715.64
333.12 K, 22000 kPa, x2 = 0.0456	716.39
333.12 K, 23000 kPa, x2 = 0.0456	717.15
333.12 K, 24000 kPa, x2 = 0.0456	717.89
333.12 K, 25000 kPa, x2 = 0.0456	718.63
